Source: US10246442B2, “4-Aminoquinazolin compounds as prolyl hydroxylase inhibitors” (JANSSEN PHARMACEUTICA NV, priority 2011, dated 2019)

Key:
PHD2181-417 = PHD2181-417 (Homo sapiens (Human), UniProt Q9GZT9); experiment: PHD enzymatic assay ([14C]-succinic acid production); type: biochemical; conditions: purified PHD2181-417, HIF-1α peptide substrate, 30 min pre-incubation; average of results
Procedure, shortened: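 Recombinant human PHD2 (aa 181-417, E. coli-expressed, tags cleaved) with peptide substrate (10 μM) and [5-14C]-2-oxoglutarate in Tris pH 7.5 with catalase, DTT and ascorbate, 10 min reaction after 30 min compound pre-incubation; compounds at 100 μM final, 1% DMSO. [14C]-succinate separated by DNP precipitation and beta-counted; IC50 from three-parameter logistic fit.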

HIF1-α, Hela cells = experiment: Cellular assay for HIF1-α in Hela cells; type: cell-based; conditions: Homo sapiens, 100 μM compound, 6 hours, percent of HIF stimulation relative to assay control compound 7-[(4-Chloro-phenyl)-(5-methyl-isoxazol-3-ylamino)-methyl]-quinolin-8-ol
Procedure: Cellular Assay for HIF1-α
Hela cells (ATCC, Manassas, Va.) were plated in 96-well plates at 20,000 cells per well in 100 μl of DMEM containing 10% fetal bovine serum, 1% non-essential amino acids, 50 IU/mL of penicillin and 50 μg/mL of streptomycin (all cell culture reagents from Invitrogen, Carlsbad, Calif.). 24 hours after plating, changed media to 100 ul of DMEM without 10% fetal bovine serum, 1.1 μl of the stock solution for each compound was added and incubated for 6 hours. All compounds were tested with a final compound concentration of 100 μM. The supernatant was removed and the cells were lysed in 55 μl of MSD lysis buffer containing protease inhibitors. 50 μl of the cell lysate was then transferred to a blocked MSD human HIF-1α detection plate (Meso-Scale Discovery, Gaithersburg, Md., as per manufacturers protocol), and incubated at room temperature on an orbital shaker for 2 hour. After 3 washes in PBS, 25 μl of 20 nM anti-HIF1α a detection antibody was added and incubated for 1 hour at room temperature on an orbital shaker. After 3 washes in PBS, 150 μl of 1× read buffer was added and the plate was then read on a MSD SECTOR instrument. Data was analyzed by determining the percent of HIF stimulation in the presence of 100 μM compound relative to an assay control compound, 7-[(4-Chloro-phenyl)-(5-methyl-isoxazol-3-ylamino)-methyl]-quinolin-8-ol.

[1] = test system: Erythropoietin secretion, Hep-3B cells; experiment: Cellular assay: EPO secretion in Hep-3B cells; type: cell-based; conditions: Homo sapiens, Hep3B, 100 μM compound, 24 hours, percent of EPO secretion relative to assay control compound 7-[(4-Chloro-phenyl)-(5-methyl-isoxazol-3-ylamino)-methyl]-quinolin-8-ol, read-out: Cellular % EPO Stimulation
Procedure, shortened: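 Compounds at 100 μM final were added to Hep-3B cells 24 h after plating and left for 24 h. Secreted EPO in supernatant measured by MSD electrochemiluminescence immunoassay. Reported as percent EPO secretion relative to an 8-hydroxyquinoline reference control compound.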

Sequence of PHD2181-417 (Q9GZT9 181-417): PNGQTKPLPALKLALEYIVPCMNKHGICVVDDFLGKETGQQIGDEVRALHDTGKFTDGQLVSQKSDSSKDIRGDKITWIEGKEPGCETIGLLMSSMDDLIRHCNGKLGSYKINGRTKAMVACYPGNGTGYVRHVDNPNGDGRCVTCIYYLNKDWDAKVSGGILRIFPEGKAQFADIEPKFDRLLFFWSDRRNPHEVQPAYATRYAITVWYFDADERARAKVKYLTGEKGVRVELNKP

Structure (SMILES)	Enzyme pIC50 (PHD2181-417)	activation at 100 µM (HIF1-α, Hela cells) [%]	activation at 100 µM [1] [%]
O=C(O)c1cnn(-c2nc(NCC3CCCCC3)c3cc(Oc4ccc(Cl)cc4)ccc3n2)c1 [Example 64, 1-(6-(4-Chlorophenoxy)-4-((cyclohexylmethyl)amino)quinazolin-2-yl)-1H-pyrazole-4-carboxylic acid]	7.5	1.5	–
O=C(O)c1cnn(-c2nc(N3CCCCCC3)c3cc(Oc4ccc(Cl)cc4)ccc3n2)c1 [Example 66, 1-(4-(Azepan-1-yl)-6-(4-chlorophenoxy)quinazolin-2-yl)-1H-pyrazole-4-carboxylic acid]	7.5	14	–
O=C(O)c1cnn(-c2nc(N3CCSCC3)c3cc(Oc4ccc(Cl)cc4)ccc3n2)c1 [Example 67, 1-(6-(4-Chlorophenoxy)-4-thiomorpholinoquinazolin-2-yl)-1H-pyrazole-4-carboxylic acid]	7.3	31	–
CC(C)(C)Nc1nc(-n2cc(C(=O)O)cn2)nc2ccc(Oc3ccccc3)cc12 [Example 72, 1-(4-(tert-Butylamino)-6-phenoxyquinazolin-2-yl)-1H-pyrazole-4-carboxylic acid]	6.7	32	–
CCN(CC)c1nc(-n2cc(C(=O)O)cn2)nc2ccc(Oc3ccccc3)cc12 [Example 74, 1-(4-(Diethylamino)-6-phenoxyquinazolin-2-yl)-1H-pyrazole-4-carboxylic acid]	7.3	81	–
O=C(O)c1cnn(-c2nc(NC3CCOCC3)c3cc(Oc4ccccc4)ccc3n2)c1 [Example 76, 1-(6-Phenoxy-4-((tetrahydro-2H-pyran-4-yl)amino)quinazolin-2-yl)-1H-pyrazole-4-carboxylic acid]	6.5	19	–
O=C(O)c1cnn(-c2nc(N3CCCC3)c3ccc(Oc4ccccc4)cc3n2)c1 [Example 78, 1-(7-Phenoxy-4-(pyrrolidin-1-yl)quinazolin-2-yl)-1H-pyrazole-4-carboxylic acid]	7.3	64	38
CN(C)c1nc(-n2cc(C(=O)O)cn2)nc2cc(-c3ccccc3)ccc12 [Example 80, 1-(4-(Dimethylamino)-7-phenylquinazolin-2-yl)-1H-pyrazole-4-carboxylic acid]	6.0	7.8	–
O=C(O)c1cnn(-c2nc(N3CCCC3)c3ccc(-c4ccccc4)cc3n2)c1 [Example 81, 1-(7-Phenyl-4-(pyrrolidin-1-yl)quinazolin-2-yl)-1H-pyrazole-4-carboxylic acid]	5.5	10	–
O=C(O)c1cnn(-c2nc(N3CCCCC3)c3ccc(-c4ccccc4)cc3n2)c1 [Example 82, 1-(7-Phenyl-4-(piperidin-1-yl)quinazolin-2-yl)-1H-pyrazole-4-carboxylic acid]	6.1	4.6	–
O=C(O)c1cnn(-c2nc(NCC3CCCCC3)c3ccc(Oc4ccccc4)cc3n2)c1 [Example 84, 1-(4-((Cyclohexylmethyl)amino)-7-phenoxyquinazolin-2-yl)-1H-pyrazole-4-carboxylic acid]	6.8	4.6	–
CC(C)C1CCN(c2nc(-n3cc(C(=O)O)cn3)nc3cc(Oc4ccccc4)ccc23)CC1 [Example 85, 1-(4-(4-isopropylpiperidin-1-yl)-7-phenoxyquinazolin-2-yl)-1H-pyrazole-4-carboxylic acid]	6.8	1.7	–
O=C(O)c1cnn(-c2nc(NC3CC3)c3ccc(Oc4ccccc4)cc3n2)c1 [Example 86, 1-(4-(Cyclopropylamino)-7-phenoxyquinazolin-2-yl)-1H-pyrazole-4-carboxylic acid]	6.3	13	–
CCN(CC)c1nc(-n2cc(C(=O)O)cn2)nc2ccc(N3CCCCC3)cc12 [Example 88, 1-(4-(Diethylamino)-6-(piperidin-1-yl)quinazolin-2-yl)-1H-pyrazole-4-carboxylic acid]	7.0	122	94
O=C(O)c1cnn(-c2nc(N3CCOCC3)c3ccc(Oc4ccccc4)cc3n2)c1 [Example 89, 1-(4-Morpholino-7-phenoxyquinazolin-2-yl)-1H-pyrazole-4-carboxylic acid]	6.2	17	–
O=C(O)c1cnn(-c2nc(N3CCSCC3)c3ccc(Oc4ccccc4)cc3n2)c1 [Example 90, 1-(7-Phenoxy-4-thiomorpholinoquinazolin-2-yl)-1H-pyrazole-4-carboxylic acid]	6.3	7.7	–
O=C(O)c1cnn(-c2nc(N3CCC(F)CC3)c3ccc(Oc4ccccc4)cc3n2)c1 [Example 91, 1-(4-(4-Fluoropiperidin-1-yl)-7-phenoxyquinazolin-2-yl)-1H-pyrazole-4-carboxylic acid]	6.3	18	–
CCCCN(CCCC)c1nc(-n2cc(C(=O)O)cn2)nc2cc(Oc3ccccc3)ccc12 [Example 92, 1-(4-(Dibutylamino)-7-phenoxyquinazolin-2-yl)-1H-pyrazole-4-carboxylic acid]	7.1	4.1	–
CCN(C)c1nc(-n2cc(C(=O)O)cn2)nc2cc(Oc3ccccc3)ccc12 [Example 94, 1-(4-(Ethyl(methyl)amino)-7-phenoxyquinazolin-2-yl)-1H-pyrazole-4-carboxylic acid]	7.2	83	–
COCCN(C)c1nc(-n2cc(C(=O)O)cn2)nc2cc(Oc3ccccc3)ccc12 [Example 95, 1-(4-((2-Methoxyethyl)(methyl)amino)-7-phenoxyquinazolin-2-yl)-1H-pyrazole-4-carboxylic acid]	6.8	46	–
CCN(CC)c1nc(-n2cc(C(=O)O)cn2)nc2cc(Br)ccc12 [Example 96, 1-(7-Bromo-4-(diethylamino)quinazolin-2-yl)-1H-pyrazole-4-carboxylic acid]	6.9	72	–
O=C(O)c1cnn(-c2nc(NC3CCCCC3)c3ccc(Oc4ccccc4)cc3n2)c1 [Example 97, 1-(4-(Cyclohexylamino)-7-phenoxyquinazolin-2-yl)-1H-pyrazole-4-carboxylic acid]	7.0	55	–
O=C(O)c1cnn(-c2nc(NCC3CC3)c3ccc(Oc4ccccc4)cc3n2)c1 [Example 98, 1-(4-((Cyclopropylmethyl)amino)-7-phenoxyquinazolin-2-yl)-1H-pyrazole-4-carboxylic acid]	6.7	46	–
CC(C)(C)Nc1nc(-n2cc(C(=O)O)cn2)nc2cc(Oc3ccccc3)ccc12 [Example 99, 1-(4-(tert-Butylamino)-7-phenoxyquinazolin-2-yl)-1H-pyrazole-4-carboxylic acid]	6.3	31	–
